Measured values reported in ChEMBL document CHEMBL1201862, “PubChem BioAssay data set” (2004).
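Values below derive from 48-hour exposures of cells grown in 96-well plates, with endpoints linearly interpolated between the two concentrations bracketing the appropriate inhibition level. GI50: concentration for 50% inhibition of growth.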 Calls of active or inactive are those of the source. No stated cut-off is given here; in the data, active = GI50 up to about 1.1 µM and inactive = higher.

What was measured:
Test in all cases: NCI anticancer screen, dose series, 48 h
[1] = tested on: UACC-257
[2] = tested on: HCT-15
[3] = tested on: SF-539
[4] = tested on: OVCAR-3
[5] = tested on: MDA-MB-231
[6] = tested on: TK-10
[7] = tested on: IGROV-1
[8] = tested on: MDA-MB-435
[9] = tested on: MCF7
[10] = tested on: EKVX
[11] = tested on: SK-MEL-5
[12] = tested on: U-251
[13] = tested on: UO-31
[14] = tested on: OVCAR-5
[15] = tested on: SK-MEL-28
[16] = tested on: 786-0
[17] = tested on: MOLT-4
[18] = tested on: HL-60
[19] = tested on: RPMI-8226
[20] = tested on: SR

| Structure (SMILES) | GI50 [1] | GI50 [2] [µM] | GI50 [3] | GI50 [4] | GI50 [5] | GI50 [6] | GI50 [7] | GI50 [8] | GI50 [9] | GI50 [10] | GI50 [11] | GI50 [12] | GI50 [13] | GI50 [14] | GI50 [15] | GI50 [16] | GI50 [17] | GI50 [18] | GI50 [19] | GI50 [20] |
| --- | --- | --- | --- | --- | --- | --- | --- | --- | --- | --- | --- | --- | --- | --- | --- | --- | --- | --- | --- | --- |
| O=C(/C=C1\Nc2ccc([N+](=O)[O-])cc2N=C1NC12CC3CC(CC(C3)C1)C2)c1ccccc1 | > 10 µM (inactive) | > 10 | 5.41 µM (inactive) | > 10 µM (inactive) | 4.7 µM (inactive) | 9.91 µM (inactive) | > 10 µM (inactive) | > 10 µM (inactive) | > 10 µM (inactive) | > 10 µM (inactive) | > 10 µM (inactive) | 7.16 µM (inactive) | > 10 µM (inactive) | > 10 µM (inactive) | > 10 µM (inactive) | 4.21 µM (inactive) |  |  |  |  |
| CC[P+](C)(Cc1ccccc1)c1ccccc1 (configuration not stated) | > 100 µM (inactive) | > 100 | > 100 µM (inactive) | 58.5 µM (inactive) |  | > 100 µM (inactive) | > 100 µM (inactive) |  |  | > 100 µM (inactive) | 51.3 µM (inactive) | 59 µM (inactive) | > 100 µM (inactive) | > 100 µM (inactive) | > 100 µM (inactive) | > 100 µM (inactive) | > 100 µM (inactive) | 90.8 µM (inactive) | 57.4 µM (inactive) | > 100 µM (inactive) |
| CC(C)/C(Cl)=N\OC(=O)Nc1cccc(Cl)c1 | 13.6 µM (inactive) | 16.1 | 18.9 µM (inactive) | 3.28 µM (inactive) | 15.2 µM (inactive) | 15.3 µM (inactive) | 18.6 µM (inactive) |  | 15.8 µM (inactive) | 16.3 µM (inactive) | 13.5 µM (inactive) | 18.4 µM (inactive) | 19.1 µM (inactive) | 13.5 µM (inactive) | 16.9 µM (inactive) | 15.7 µM (inactive) | 2.65 µM (inactive) | 1.71 µM (inactive) | 4.45 µM (inactive) | 2.49 µM (inactive) |
| CCC1=C(CC)C1(C#N)[N+](=O)[O-] | > 100 µM (inactive) | > 100 | > 100 µM (inactive) | > 100 µM (inactive) |  | > 100 µM (inactive) | > 100 µM (inactive) |  |  | > 100 µM (inactive) | > 100 µM (inactive) | > 100 µM (inactive) | > 100 µM (inactive) | > 100 µM (inactive) |  | > 100 µM (inactive) | > 100 µM (inactive) | > 100 µM (inactive) | 82.2 µM (inactive) | > 100 µM (inactive) |
| O=C(/C=C\c1ccccc1-c1ccccc1)c1ccccc1 | > 100 µM (inactive) | > 100 | > 100 µM (inactive) | > 100 µM (inactive) | 12.2 µM (inactive) | > 100 µM (inactive) | > 100 µM (inactive) | > 100 µM (inactive) |  | > 100 µM (inactive) | > 100 µM (inactive) | > 100 µM (inactive) | > 100 µM (inactive) | > 100 µM (inactive) |  | > 100 µM (inactive) | 92 µM (inactive) | 60.4 µM (inactive) | 30.8 µM (inactive) | > 100 µM (inactive) |
| Cc1cc(C)c2c(c1)CN1CN2Cc2cc(C)cc(C)c21 |  | > 10 | > 10 µM (inactive) | 14.8 µM (inactive) |  | 19 µM (inactive) | 23.4 µM (inactive) |  |  | 16.9 µM (inactive) |  | 17.5 µM (inactive) | 24.4 µM (inactive) | 55.1 µM (inactive) | 16.5 µM (inactive) | 17.2 µM (inactive) | 22.4 µM (inactive) | 26.4 µM (inactive) | 19.9 µM (inactive) | 18.8 µM (inactive) |
| CC1=C(NC(=O)C(=O)NNC(=O)c2ccncc2)C(=O)c2ccccc2C1=O | 9.77 µM (inactive) | 12.4 | 17.2 µM (inactive) | 4.08 µM (inactive) |  | 45.2 µM (inactive) | 12.7 µM (inactive) |  |  | 13.5 µM (inactive) | 1.98 µM (inactive) | 9.04 µM (inactive) | 18 µM (inactive) | 17 µM (inactive) | 17.3 µM (inactive) | 18.2 µM (inactive) | 20.8 µM (inactive) | 10.8 µM (inactive) | 19.5 µM (inactive) | 9.12 µM (inactive) |
| O=C1C(Cl)=C(Cl)C(=O)N1c1cccc(C(F)(F)F)c1 | > 100 µM (inactive) | > 100 | > 100 µM (inactive) | > 100 µM (inactive) |  | > 100 µM (inactive) | > 100 µM (inactive) |  |  | > 100 µM (inactive) | > 100 µM (inactive) | > 100 µM (inactive) | > 100 µM (inactive) | > 100 µM (inactive) | > 100 µM (inactive) | > 100 µM (inactive) | 51.4 µM (inactive) | > 100 µM (inactive) | > 65.6 µM (inactive) | 35.9 µM (inactive) |
| O=C1/C(=C/c2ccccc2)CN(C(=O)Oc2ccccc2)C/C1=C\c1ccccc1 | > 100 µM (inactive) | 40.6 | 5.36 µM (inactive) | 99.5 µM (inactive) |  | 17 µM (inactive) | 21.6 µM (inactive) |  |  | 62.2 µM (inactive) | > 100 µM (inactive) | 18.7 µM (inactive) | 34.3 µM (inactive) | > 100 µM (inactive) | > 100 µM (inactive) | 10.5 µM (inactive) | 9.29 µM (inactive) | 1.7 µM (inactive) | 0.221 µM (active) | 7.19 µM (inactive) |
| [N-]=[N+]=C1C(=O)C2CC3CC(C2)CC1C3 | > 100 µM (inactive) | > 100 | > 100 µM (inactive) | > 100 µM (inactive) |  | > 100 µM (inactive) | > 100 µM (inactive) |  |  | > 100 µM (inactive) | > 100 µM (inactive) | > 100 µM (inactive) | > 100 µM (inactive) | > 100 µM (inactive) | > 100 µM (inactive) | > 100 µM (inactive) | > 100 µM (inactive) | > 100 µM (inactive) | > 100 µM (inactive) | > 100 µM (inactive) |
| Oc1nnc2c(-c3ccccc3)n[nH]c2n1 | > 100 µM (inactive) | > 100 | 15 µM (inactive) | > 100 µM (inactive) |  | > 100 µM (inactive) | 94.4 µM (inactive) |  |  | 16.4 µM (inactive) |  | > 100 µM (inactive) | > 100 µM (inactive) | > 100 µM (inactive) | > 100 µM (inactive) | 15.5 µM (inactive) | > 100 µM (inactive) | > 100 µM (inactive) | > 100 µM (inactive) | > 100 µM (inactive) |
| O=C(O)c1ccc(Nc2nc3nn(Cc4ccccc4)cc3c(=O)s2)cc1 | > 100 µM (inactive) | > 100 | > 100 µM (inactive) | > 100 µM (inactive) |  | > 100 µM (inactive) | > 100 µM (inactive) |  |  | > 100 µM (inactive) | > 100 µM (inactive) | > 100 µM (inactive) | > 100 µM (inactive) | > 100 µM (inactive) | > 100 µM (inactive) | > 100 µM (inactive) | > 100 µM (inactive) | > 100 µM (inactive) | > 100 µM (inactive) | > 100 µM (inactive) |
| NCCN1CCCCCc2ccccc21 | > 10 µM (inactive) | > 10 | > 10 µM (inactive) | > 10 µM (inactive) |  | > 10 µM (inactive) | > 10 µM (inactive) | > 10 µM (inactive) | > 10 µM (inactive) | > 10 µM (inactive) | > 10 µM (inactive) | > 10 µM (inactive) | > 10 µM (inactive) |  | > 10 µM (inactive) | > 10 µM (inactive) | > 10 µM (inactive) | > 10 µM (inactive) | > 10 µM (inactive) | > 10 µM (inactive) |
| Oc1cccc(C2SCc3nc4ccccc4n32)c1 (configuration not stated) | 31.7 µM (inactive) |  | > 100 µM (inactive) | 45.6 µM (inactive) |  | > 100 µM (inactive) |  |  |  | 43.5 µM (inactive) | 14.8 µM (inactive) | 84.5 µM (inactive) | 35.6 µM (inactive) | 26.2 µM (inactive) | 59.4 µM (inactive) | > 100 µM (inactive) | 31.6 µM (inactive) | 25.5 µM (inactive) | 39.3 µM (inactive) | 48.8 µM (inactive) |
| CCC(CCCCC1CC[C@H]2CC(=O)C[C@@H]12)OC (some centres not stated) | 72.3 µM (inactive) | > 100 | > 100 µM (inactive) | > 100 µM (inactive) | > 100 µM (inactive) | > 100 µM (inactive) | > 100 µM (inactive) |  | > 100 µM (inactive) |  | 79.8 µM (inactive) | > 100 µM (inactive) |  | > 100 µM (inactive) | > 100 µM (inactive) | > 100 µM (inactive) | > 100 µM (inactive) | 36.7 µM (inactive) |  |  |
| Cc1c(C(=O)/C=C/c2ccc3c(c2)OCO3)[n+]([O-])c2ccccc2[n+]1[O-] | 31 µM (inactive) |  | 22.5 µM (inactive) | 24.2 µM (inactive) |  | 36.1 µM (inactive) | 34.6 µM (inactive) |  |  | 24.7 µM (inactive) |  | 30.3 µM (inactive) | 28 µM (inactive) | 27.8 µM (inactive) | 61 µM (inactive) | 42.1 µM (inactive) | 22.9 µM (inactive) | 30.8 µM (inactive) | 27 µM (inactive) | 30.3 µM (inactive) |
| O=c1c(O)c(-c2ccc(O)c(O)c2)oc2cc(O)ccc12 [FISETIN] | 22.3 µM (inactive) | 14.4 | 12 µM (inactive) | 19.9 µM (inactive) |  | 29.7 µM (inactive) | 18.6 µM (inactive) |  |  | 25.4 µM (inactive) | 13.1 µM (inactive) | 7.14 µM (inactive) | 14.5 µM (inactive) | 17.2 µM (inactive) | 21.7 µM (inactive) | 24.8 µM (inactive) | 17 µM (inactive) | 28.7 µM (inactive) | 26.8 µM (inactive) | 18 µM (inactive) |
